US20010018051A1, “Inhibition of allograft and concordant xenograft rejection” (priority 1990, published 2001)

Legend:
rabbit kidney xenografts = settings: rabbit kidney into cats; cited from earlier work
hamster heart xenograft = hamster heart xenograft survival in rats; assay type: in vivo, rat; settings: hamster heart in DA rats; i.m. on alternate days from time of transplantation (cyclosporin A 20 mg/kg, cobra venom factor 0.4 mg/kg)
Text: All other cardiac vessels were ligated.
Injections were given on alternate days thereafter.

[1] = assay type: in vivo; settings: doses of 2 mg/kg
Text: (§1) The minimum dosage of cobra venom factor is species dependent and can readily be determined by the CH50 assay. […] Effective and non-toxic dosages of other complement inhibitors can also readily be determined by those skilled in the art, for example, using the CH50 assay.

complement activity = assay: onset and duration of cobra venom factor activity after intramuscular administration; assay type: in vivo
Procedure: as §1
Cobra venom factor takes about 6 hours for its initial activity to take effect after intramuscular administration. Once the initial activity is observed, it can last for more than 1 day, for example 2 days, and so daily administration of cobra venom factor may not be necessary. In fact, it is preferred to administer cobra venom factor on alternate days, in which case the preferred daily dosages given above will be doubled on the day of administration.

## C[C@H](CS)C(=O)N1CCC[C@H]1C(=O)O [captopril]
Rabbit kidney xenografts
  prevention of hyperacute rejection: not prevented

## CCOC(=O)[C@H](CCc1ccccc1)N[C@@H](C)C(=O)N1CCC[C@H]1C(=O)O [enalapril]
Rabbit kidney xenografts
  prevention of hyperacute rejection: not prevented

## CCCCC[C@H](O)/C=C/[C@@H]1[C@H]2C/C(=C/CCCC(=O)O)O[C@H]2C[C@H]1O [prostacyclin]
Rabbit kidney xenografts
  prevention of hyperacute rejection: not prevented

## O=C(O)c1cc(=O)c2c(OCC(O)COc3cccc4oc(C(=O)O)cc(=O)c34)cccc2o1 [sodium chromoglycate]
Rabbit kidney xenografts
  prevention of hyperacute rejection: not prevented

## cobra venom factor
Hamster heart xenograft
  median graft survival rate: 6 days
[1]
  toxicity: do not appear to be toxic
Complement activity
  duration of activity once observed: more than 1 day
  time for initial activity to take effect: about 6 hours
Rabbit kidney xenografts
  prolongation in graft survival: up to seven days
